Test results reported in publication PMC11859726, “HDAC/σ1R Dual-Ligand as a Targeted Melanoma Therapeutic” (Pharmaceuticals, 2025).
Like-named read-outs stand apart in the source and are kept apart here.

Columns and labels:
σ1R = molecular target: T1, σ1R (Cavia porcellus, UniProt Q60492); assay: σ1R radioligand binding assay ([3H]-(+)-pentazocine); set-up: species or system guinea pig
T1 construct: using guinea pig brain membranes and appropriate radioligands; from tissue; host or cells: guinea pig brain membranes
Protocol: (§4) Radioactivity was determined with a Beckman LS6500 scintillation counter. Inhibition constants (Ki values) were calculated with the EBDA/LIGAND program (Elsevier/Biosoft).

σ2R = molecular target: T2, σ2R (Cavia porcellus, UniProt H0V073); assay: σ2R radioligand binding assay ([3H]-DTG); set-up: species or system guinea pig
T2 construct: using guinea pig brain membranes and appropriate radioligands; from tissue; host or cells: guinea pig brain membranes
T2 sequence (H0V073 1-176): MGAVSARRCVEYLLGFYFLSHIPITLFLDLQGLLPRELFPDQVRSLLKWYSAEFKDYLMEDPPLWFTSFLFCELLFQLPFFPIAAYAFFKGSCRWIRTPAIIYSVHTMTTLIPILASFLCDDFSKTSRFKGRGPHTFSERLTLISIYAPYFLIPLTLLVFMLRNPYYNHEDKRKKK
Protocol: as §4

UM 92-1 cells [1] = assay: Cell proliferation, UM 92-1 cells; assay type: cell-based, human; details: for effect on proliferation: UM 92-1 cells, 3c 30 and 100 nM, pentazocine 2 μM, AC927 2 μM, Figure 3a
Protocol: (§1) Cells were seeded in 96-well plates at a cell-specific density, following quantification of cell numbers on counting chambers after trypsinization and staining with trypan blue. After seeding (72 h), at a cell confluence of ~50%, the medium was removed, and treatments were started with fresh media. Treatments, carried out in quadruplicate, lasted for 48 h. Then, the cells were fixed with 4% paraformaldehyde in PBS for 20 min and, after washing, stained with either 1% crystal violet in water or an acridine orange solution (50 µg/mL) for an additional 20 min. At the end of the incubations, cells were washed (3 times) with 100 μL/well of bidistilled water. Finally, for crystal violet assays, 100 μL of 10% acetic acid was added to each well, and the absorbance (λ = 590 nm) was measured with a Synergy HTX Bioteck spectrophotometer (BioSPX, Beersel, Belgium). For acridine orange assays, cell staining was evaluated by measuring the fluorescence (excitation 485/20 nm, emission 528/20 nm) with the Synergy HTX Bioteck reader.

A375 cells = assay: Cell proliferation, CM A375 cells; assay type: cell-based, human; details: for effect on proliferation: CM A375 cells, 3c 90 and 200 nM, pentazocine 2 μM, AC927 2 μM, Figure 3b
Protocol: as §1

endothelial C166 cells = assay: Tube formation assay, VEGF-A-stimulated endothelial cells; assay type: cell-based, mouse; details: for effect on VEGF-A-stimulated angiogenesis (tube lengths, mesh areas, node numbers; words): 5 µM; for antiangiogenic effect in the presence of pentazocine: 5 µM plus σ1R agonist pentazocine 2 μM; for antiangiogenic effect in the presence of pentazocine / antiangiogenic effect in the presence of AC927: combined score; for antiangiogenic effect in the presence of AC927: 5 µM plus σ2R antagonist AC927 2 μM
Protocol: The tube formation assay using mouse endothelial […] cells was analyzed employing Matrigel (BD, Bedford, MA, USA), as previously described. Briefly, 96-well plates coated with Matrigel (50 μL/well) were filled with 100 μL medium/well and maintained overnight. Endothelial cells were seeded at 2.5 × 10^4 cells/well and incubated (for 3 h) with VEGF-A (80 ng/mL), in the presence of the indicated treatments. Then, capillary-like structures were imaged (×4 magnification) with a CCD camera connected with an inverted EVOS microscope. Finally, ImageJ software (NIH, Bethesda, MD, USA) was employed to quantify tube formations.

UM 92-1 cells [2] = assay: Tumor cell spreading assay, 92-1 cells; assay type: cell-based, human; details: 1 h; for cells flat, with protrusions, Exp 1 (%) / cells flat, with protrusions, Exp 2 (%) / cells flat, with protrusions, Exp 3 (%) / rounded cells, Exp 1 (%) / rounded cells, Exp 2 (%) / rounded cells, Exp 3 (%): 92-1, % of total cell population; for inhibition of cell spreading: UM 92-1 cells, from 100 nM
Protocol: (§2) Adherent 92-1 and MCF-7 cells were harvested using 0.05% Trypsin-EDTA and plated in 6-well plates. After 1 h incubations with the indicated treatments, the number of cells that formed, or not, distinct protrusions (lamellipodia, filopodia) were scored with an inverted microscope (20×, EVOS cell imaging system, Thermo Fisher, Waltham, MA, USA).

MCF7 cells = assay: Tumor cell spreading assay, MCF7 cells; assay type: cell-based, human; details: 100 nM, 1 h; for inhibition of cell spreading: MCF7 cells (low σ1R); for cells flat, with protrusions, Exp 1 (%) / cells flat, with protrusions, Exp 2 (%) / cells flat, with protrusions, Exp 3 (%) / rounded cells, Exp 1 (%) / rounded cells, Exp 2 (%) / rounded cells, Exp 3 (%): MCF-7, % of total cell population
Protocol: as §2

[3] = test system: HDAC (total HDAC activity, HCT116 cell lysates); assay: HDAC activity colorimetric assay in HCT116 cell lysates; assay type: biochemical, human
Protocol: (§3) HDAC activity was determined in the indicated cell lysates (50 µg proteins; 37 °C) using the non-selective HDAC Activity Colorimetric Assay kit (BioVision, Cambridge, UK), following the procedures described in previous studies. Samples were read at 405 nm with a microplate reader (Multiskan GO (Thermo Fisher Scientific, Waltham, MA, USA)), and the HDAC activity was expressed as the relative optical density (O.D.) values.

[4] = test system: HDAC enzymatic activities (MCF7, PC3, AGS cell lysates); assay: HDAC activity colorimetric assay in other cancer cell lysates (MCF7, PC3, AGS); assay type: biochemical, human; details: other cancer cell types (MCF7, PC3, AGS lysates) vs control
Protocol: as §3

A549 cells = assay: Cell proliferation, A549 cells; assay type: cell-based; details: Homo sapiens; A549 (Lung Carcinoma); 48 h; mean ± SD; read-out: Antiproliferative IC50
Protocol: as §1

786-O cells = assay: Cell proliferation, 786-O cells; assay type: cell-based; details: Homo sapiens, 786-0; 786-O (Renal Adenocarcinoma); 48 h; mean ± SD; read-out: Antiproliferative IC50
Protocol: as §1

MRC-5 cells = assay: Cell proliferation, normal MRC-5 fibroblasts; assay type: cell-based; details: Homo sapiens, MRC5; MRC-5 (Normal Lung Fibroblast); 48 h; mean ± SD; read-out: Antiproliferative IC50
Protocol: as §1

T84 cells = assay: Cell proliferation, T84 cells; assay type: cell-based, human
Protocol: as §1

WS1 cells = assay: Cell proliferation, normal WS1 fibroblasts; assay type: cell-based; details: Homo sapiens; WS1 (Normal Skin Fibroblast); 48 h; mean ± SD; read-out: Antiproliferative IC50
Protocol: as §1

T1 sequence (Q60492 whole entry): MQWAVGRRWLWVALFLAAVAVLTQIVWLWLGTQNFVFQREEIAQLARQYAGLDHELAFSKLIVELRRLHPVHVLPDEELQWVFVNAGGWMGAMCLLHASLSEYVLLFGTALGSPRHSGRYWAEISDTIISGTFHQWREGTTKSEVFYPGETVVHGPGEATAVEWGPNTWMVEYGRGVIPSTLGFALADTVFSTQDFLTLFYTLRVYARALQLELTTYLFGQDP

## COC(=O)/C=C/c1ccc(CN2CCC(O)(c3ccc(Cl)cc3)CC2)cc1 [3c, Metil-(E)-3-(4-{[4-(4-clorofenil)-4-idrossipiperidin-1-il]methyl}phenyl)acrylate]
σ1R
  Ki: 0.028 ± 0.0044 µM
σ2R; guinea pig brain membranes, mean ± SD, read-out: Ki σ2R
  Ki: 1.33 ± 0.286 µM
UM 92-1 cells [1]
  effect on proliferation: loss of activity
A375 cells
  effect on proliferation: loss of activity
Endothelial C166 cells; 3 h, VEGF-A 80 ng/mL
  effect on VEGF-A-stimulated angiogenesis (tube lengths, mesh areas, node numbers; words): mimicked the effects of 5c
UM 92-1 cells [2]; 100 nM
  cells flat, with protrusions, Exp 1 (%): 36,01%
  cells flat, with protrusions, Exp 2 (%): 25,21%
  cells flat, with protrusions, Exp 3 (%): 33,92%
  rounded cells, Exp 1 (%): 63,99%
  rounded cells, Exp 2 (%): 74,79%
  rounded cells, Exp 3 (%): 66,08%
UM 92-1 cells [2]; 5 µM
  cells flat, with protrusions, Exp 1 (%): 45,38%
  cells flat, with protrusions, Exp 2 (%): 18,28%
  cells flat, with protrusions, Exp 3 (%): 39,44%
  rounded cells, Exp 1 (%): 54,62%
  rounded cells, Exp 2 (%): 81,72%
  rounded cells, Exp 3 (%): 60,56%
UM 92-1 cells [2]
  inhibition of cell spreading: significantly suppressed
MCF7 cells
  inhibition of cell spreading: unable to significantly inhibit
  cells flat, with protrusions, Exp 1 (%): 49,37%
  cells flat, with protrusions, Exp 2 (%): 50,89%
  cells flat, with protrusions, Exp 3 (%): 46,27%
  rounded cells, Exp 1 (%): 50,63%
  rounded cells, Exp 2 (%): 49,11%
  rounded cells, Exp 3 (%): 53,73%

## Cl.O=C(/C=C/c1ccc(CN2CCC(O)(c3ccc(Cl)cc3)CC2)cc1)NO [5c, (E)-4-(4-chlorophenyl)-4-hydroxy-1-{4-[3-(hydroxyamino)-3-oxoprop-1-en-1-yl]benzyl}piperidin-1-ium chloride]
σ1R
  Ki: 0.019 ± 0.0016 µM
σ1R; σ1R vs σ2R Ki
  fold higher affinity for σ1R than σ2R: > 100 fold
σ2R
  Ki: 2.05 ± 0.737 µM
[3]
  HDAC inhibition with respect to the vehicle control: ~ 80%
[3]; 0–20 µM, read-out: IC50 on HDAC-dependent catalytic activity
  IC50: 0.0146 µM
[4]
  suppression of resident HDAC enzymatic activities: significant suppression
UM 92-1 cells [1]; 92-1 vs MRC-5 IC50
  superior antiproliferative potency in UM cells compared to normal lung fibroblasts: ~ 5 fold
UM 92-1 cells [1]; Homo sapiens, 92.1 (Uveal Melanoma), 48 h, mean ± SD, read-out: Antiproliferative IC50
  IC50: 0.0248 ± 0.0058 µM
A375 cells; CM A375, lung A549 and renal 786-O vs WS1
  shift to the left in antiproliferative dose–response curves compared to normal skin fibroblasts: 8–10 fold
A375 cells; Homo sapiens, A-375, A375 (Cutaneous Melanoma), 48 h, mean ± SD, read-out: Antiproliferative IC50
  IC50: 0.0915 ± 0.0114 µM
A549 cells
  IC50: 0.118 ± 0.013 µM
786-O cells
  IC50: 0.15 ± 0.024 µM
MRC-5 cells
  IC50: 0.157 ± 0.0552 µM
T84 cells; Homo sapiens, T84 (Colorectal Carcinoma), 48 h, mean ± SD, read-out: Antiproliferative IC50
  IC50: 1.2 ± 0.381 µM
T84 cells; colon cancer T84 cells
  sensitivity to antitumor actions: resistant
WS1 cells
  IC50: 1.16 ± 0.187 µM
Endothelial C166 cells; 30 nM, 3 h, VEGF-A 80 ng/mL
  effect on VEGF-A-stimulated angiogenesis: without effects
Endothelial C166 cells
  antiangiogenic effect in the presence of pentazocine: completely prevented
  antiangiogenic effect in the presence of AC927: to a significantly lesser extent than pentazocine
Endothelial C166 cells; 3 h, VEGF-A 80 ng/mL
  effect on VEGF-A-stimulated angiogenesis (tube lengths, mesh areas, node numbers; words): abrogated
UM 92-1 cells [2]; 100 nM
  cells flat, with protrusions, Exp 1 (%): 37,23%
  cells flat, with protrusions, Exp 2 (%): 27,77%
  cells flat, with protrusions, Exp 3 (%): 37,27%
  rounded cells, Exp 1 (%): 62,77%
  rounded cells, Exp 2 (%): 72,23%
  rounded cells, Exp 3 (%): 62,73%
UM 92-1 cells [2]; 5 µM
  cells flat, with protrusions, Exp 1 (%): 28,48%
  cells flat, with protrusions, Exp 2 (%): 17,22%
  cells flat, with protrusions, Exp 3 (%): 33,05%
  rounded cells, Exp 1 (%): 71,52%
  rounded cells, Exp 2 (%): 82,78%
  rounded cells, Exp 3 (%): 66,95%
UM 92-1 cells [2]
  inhibition of cell spreading: significant inhibition
MCF7 cells
  inhibition of cell spreading: failed to suppress
  cells flat, with protrusions, Exp 1 (%): 47,13%
  cells flat, with protrusions, Exp 2 (%): 44,67%
  cells flat, with protrusions, Exp 3 (%): 39,07%
  rounded cells, Exp 1 (%): 52,87%
  rounded cells, Exp 2 (%): 55,33%
  rounded cells, Exp 3 (%): 60,93%

## CCCC(CCC)C(=O)O[C@@H](CCCN1CCC(O)(c2ccc(Cl)cc2)CC1)c1ccc(F)cc1 [(-)-1, reference compound]
Endothelial C166 cells
  antiangiogenic effect in the presence of pentazocine: partially and equally blocked
  antiangiogenic effect in the presence of AC927: partially and equally blocked
Endothelial C166 cells; 3 h, VEGF-A 80 ng/mL
  effect on VEGF-A-stimulated angiogenesis (tube lengths, mesh areas, node numbers; words): significantly inhibited
UM 92-1 cells [2]; 100 nM
  cells flat, with protrusions, Exp 1 (%): 33,84%
  cells flat, with protrusions, Exp 2 (%): 21,33%
  cells flat, with protrusions, Exp 3 (%): 34,97%
  rounded cells, Exp 1 (%): 66,16%
  rounded cells, Exp 2 (%): 78,67%
  rounded cells, Exp 3 (%): 65,03%
UM 92-1 cells [2]; 5 µM
  cells flat, with protrusions, Exp 2 (%): 13,49%
  cells flat, with protrusions, Exp 3 (%): 26,09%
  rounded cells, Exp 2 (%): 86,51%
  rounded cells, Exp 3 (%): 73,91%
UM 92-1 cells [2]
  inhibition of cell spreading: reduced UM cell spreading with seemingly higher potencies
MCF7 cells
  inhibition of cell spreading: unable to significantly inhibit
  cells flat, with protrusions, Exp 1 (%): 45,95%
  cells flat, with protrusions, Exp 2 (%): 48,03%
  cells flat, with protrusions, Exp 3 (%): 40,28%
  rounded cells, Exp 1 (%): 54,05%
  rounded cells, Exp 2 (%): 51,97%
  rounded cells, Exp 3 (%): 59,72%

## c1ccc(CCN2CCCCC2)cc1 [AC927, reference compound]
UM 92-1 cells [1]
  effect on proliferation: did not alter
A375 cells
  effect on proliferation: did not alter

## CC(C)=CCN1CCC2(C)c3cc(O)ccc3CC1C2C (stereo not drawn) [PTZ, pentazocine, reference compound]
UM 92-1 cells [1]
  effect on proliferation: did not alter
A375 cells
  effect on proliferation: did not alter
